Counter-ions that a name gives are not always drawn. A value given as a limit tells only on which side of the number the result lay.

One assay addresses TsGAR-2 (Trichinella spiralis, UniProt E5SAZ1). Put plainly: Aequorin antagonist assay (block of 10 μM ACh response) in CHO-K1 cells expressing TsGAR-2. Particulars: co-expressed with Gα15(16). Format: cell-based. The source says:
(§1) T. spiralis GARs were heterologously expressed in CHO–K1 cells (Sigma) along with the aequorin reporter—with or without the wild-type human G protein alpha 15 subunit (Gα15(16)) (cDNA Resource Center, Bloomsburg University of Pennsylvania)—to observe activation of the receptor by monitoring bioluminescence triggered by the mobilization of intracellular calcium ([Offermanns and Simon, 1995]; [Park et al., 2002]). Therefore, there were two types of transient expression: i) TsGAR-1, -2, or -3/aequorin/Gα15(16); and ii) TsGAR-1, -2, or -3/aequorin. The use of Gα15(16) in the first assay is due to its highly efficient way of linking calcium mobilization signaling pathways to GPCRs that are preferentially coupling with Gi/o or Gs protein members ([Offermanns and Simon, 1995]).
(§2) For handling cell lines, all transfection details, and monitoring receptor activities, we followed the previously published study ([Šimo et al., 2011], [2013]; [Mateos-Hernández et al., 2020]). Briefly, CHO–K1 cells were kept in growth medium (Ham's F12 Media with 10% fetal bovine serum) until 70% of confluence was reached. FuGENE® HD Transfection Reagent (Promega) was then used to transfect the plasmid constructs. Prior to the assay, the cells were pre-equilibrated with coelenterazine h (Promega) for 3 h at room temperature. The assay was performed in opaque 96-well microplates (Nunc) using either Fluostar Omega (BMG Labtech) or GloMax® Plate Reader (Promega). In agonist assays, 50 μL of various doses of agonistic ligands were added to wells in triplicate, followed by injection of 50μL/∼15,000 of CHO–K1 cells. Immediately after the cell injections, luminescence values were monitored for 25 s and their integrated values over time were normalized to the largest positive control response in each plate (45 μM ACh) after background noise was subtracted. When performing the antagonist assay, cells were pre-incubated with different doses of antagonistic ligands for 5 min in RT (in a 96-well plate) and subsequently a 50 μL of 10 μM ACh solution was injected into the wells. The changes in luminescence were measured for 25 s immediately after injecting ACh, and time integrated values were normalized to the response of those wells in each plate that only contained cells with medium. A dose-response curve was plotted afterwards for each data set and half-maximum response values (EC50 or IC50) along the Hill coefficient (nH) were calculated using GraphPad Prism 8.0 (GraphPad Software). Two and three biological replicates were performed for the testing of T. spiralis GARs with or without the Gα15(16) and agonistic or antagonistic assay, respectively, with three technical replicates for each ligand. In terms of negative controls, a mock transfection was performed using empty pcDNA3.1 (+) plasmid, with an aequorin reporter and Gα15(16) subunit. To confirm the specificity of T. spiralis GAR-1, -2, and -3 affinity, we tested dopamine, octopamine and norepinephrine chemical agents.

The next assay deals with A. suum GAR-1. Also noted: method as in Kimber et al., 2009. Particulars: ref Kimber et al., 2009; cited from earlier work.
A further assay relates to C. elegans GAR-1. Further details: method as in Lee et al., 1999, Lee et al., 2000. Particulars: ref Lee et al., 1999, Lee et al., 2000; cited from earlier work.
In another assay the target is TsGAR-3 (Trichinella spiralis, UniProt E5S5F5). In words: Aequorin antagonist assay (block of 10 μM ACh response) in CHO-K1 cells expressing TsGAR-3. Format: cell-based. On the procedure: Therefore, there were two types of transient expression: i) TsGAR-1, -2, or -3/aequorin/Gα15(16); and ii) TsGAR-1, -2, or -3/aequorin.
Sequence of TsGAR-3 (E5S5F5 entry or part of it): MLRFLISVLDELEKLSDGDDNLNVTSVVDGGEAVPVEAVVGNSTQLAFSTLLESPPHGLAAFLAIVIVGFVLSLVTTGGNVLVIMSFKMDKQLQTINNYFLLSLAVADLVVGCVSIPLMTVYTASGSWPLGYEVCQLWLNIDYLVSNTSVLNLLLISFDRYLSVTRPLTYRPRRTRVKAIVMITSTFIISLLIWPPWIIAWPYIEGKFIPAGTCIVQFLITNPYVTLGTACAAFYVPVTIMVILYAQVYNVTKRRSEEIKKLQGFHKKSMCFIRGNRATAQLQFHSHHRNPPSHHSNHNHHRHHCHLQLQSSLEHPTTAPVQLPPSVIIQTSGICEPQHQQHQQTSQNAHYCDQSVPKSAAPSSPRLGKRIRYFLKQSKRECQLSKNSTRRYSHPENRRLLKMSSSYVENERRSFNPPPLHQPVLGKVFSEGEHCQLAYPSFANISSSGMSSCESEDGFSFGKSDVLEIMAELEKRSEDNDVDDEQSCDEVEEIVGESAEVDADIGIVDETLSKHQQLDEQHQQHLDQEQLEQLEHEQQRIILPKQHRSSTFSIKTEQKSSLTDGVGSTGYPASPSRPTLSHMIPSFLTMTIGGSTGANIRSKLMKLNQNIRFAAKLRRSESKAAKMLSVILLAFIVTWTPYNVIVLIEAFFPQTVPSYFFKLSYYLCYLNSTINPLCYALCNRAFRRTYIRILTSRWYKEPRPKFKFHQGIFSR
as §2, with “Briefly,” for “For handling cell lines, all transfection details, and monitoring receptor activities, we followed the previously published study ([Šimo et al., 2011], [2013]; [Mateos-Hernández et al., 2020]). Briefly,”, “Immediately after the cell injections, luminescence values were monitored for 25 s and their integrated values over time were normalized to the largest positive control response in each plate (45 μM ACh) after background noise was subtracted.” left out

In another assay the test system is C. elegans GAR-2. Also noted: method as in Lee et al., 1999, Lee et al., 2000. Particulars: ref Lee et al., 1999, Lee et al., 2000; cited from earlier work.
A further assay concerns the target TsGAR-1 (Trichinella spiralis, UniProt A0A0V1C1R2). In words: Aequorin antagonist assay (block of 10 μM ACh response) in CHO-K1 cells expressing TsGAR-1. Type of assay: cell-based. The following applies: co-expressed with Gα15(16).
Source text: as §1
as §2, with “In terms of negative controls, a mock transfection was performed using empty pcDNA3.1 (+) plasmid, with an aequorin reporter and Gα15(16) subunit. To confirm the specificity of T. spiralis GAR-1, -2, and -3 affinity, we tested dopamine, octopamine and norepinephrine chemical agents.” left out

Sequence of TsGAR-2 (E5SAZ1 entry or part of it): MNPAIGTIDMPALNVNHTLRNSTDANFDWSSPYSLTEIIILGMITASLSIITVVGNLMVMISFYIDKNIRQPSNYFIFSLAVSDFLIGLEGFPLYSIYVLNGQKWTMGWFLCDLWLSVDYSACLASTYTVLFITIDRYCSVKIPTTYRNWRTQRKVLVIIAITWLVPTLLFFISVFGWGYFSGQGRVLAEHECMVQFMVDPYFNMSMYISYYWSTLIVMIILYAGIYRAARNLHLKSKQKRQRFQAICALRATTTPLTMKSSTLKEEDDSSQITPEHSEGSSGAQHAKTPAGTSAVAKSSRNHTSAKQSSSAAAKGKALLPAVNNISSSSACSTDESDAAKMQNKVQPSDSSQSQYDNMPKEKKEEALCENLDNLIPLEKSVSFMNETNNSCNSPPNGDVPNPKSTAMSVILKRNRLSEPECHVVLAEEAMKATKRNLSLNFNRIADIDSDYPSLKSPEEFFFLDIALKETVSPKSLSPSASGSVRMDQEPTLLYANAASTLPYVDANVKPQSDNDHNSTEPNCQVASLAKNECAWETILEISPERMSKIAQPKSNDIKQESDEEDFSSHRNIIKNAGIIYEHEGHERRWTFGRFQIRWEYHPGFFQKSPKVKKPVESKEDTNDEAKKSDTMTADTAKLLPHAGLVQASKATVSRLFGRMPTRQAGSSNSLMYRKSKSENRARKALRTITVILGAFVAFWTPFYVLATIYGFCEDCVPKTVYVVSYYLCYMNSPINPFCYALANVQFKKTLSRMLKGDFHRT
Sequence of TsGAR-1 (A0A0V1C1R2 entry or part of it): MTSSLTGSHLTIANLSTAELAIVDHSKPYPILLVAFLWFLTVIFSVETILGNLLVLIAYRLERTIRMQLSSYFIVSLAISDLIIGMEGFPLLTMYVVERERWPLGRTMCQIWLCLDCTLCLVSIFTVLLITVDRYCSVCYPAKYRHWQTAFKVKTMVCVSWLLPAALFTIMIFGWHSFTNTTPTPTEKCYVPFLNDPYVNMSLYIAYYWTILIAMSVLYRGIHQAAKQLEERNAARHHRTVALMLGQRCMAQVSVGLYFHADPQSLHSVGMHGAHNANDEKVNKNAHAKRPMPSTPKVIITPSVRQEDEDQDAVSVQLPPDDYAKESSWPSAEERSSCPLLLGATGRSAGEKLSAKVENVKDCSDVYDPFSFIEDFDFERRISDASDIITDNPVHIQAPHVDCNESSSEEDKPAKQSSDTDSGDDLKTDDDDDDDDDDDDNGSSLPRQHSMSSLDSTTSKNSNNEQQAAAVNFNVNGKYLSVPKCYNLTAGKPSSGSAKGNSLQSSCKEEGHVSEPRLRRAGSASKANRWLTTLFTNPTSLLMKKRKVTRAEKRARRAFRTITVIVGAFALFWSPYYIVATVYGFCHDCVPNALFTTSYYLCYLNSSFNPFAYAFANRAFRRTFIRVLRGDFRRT

The term IC50 denotes the concentration that inhibits the measured activity by half. Take `CCCOC(C(=O)OC1CCN(C)CC1)(c1ccccc1)c1ccccc1` [Propiverine, propiverine hydrochloride]: the IC50 on TsGAR-2 (antagonist vs 10 μM ACh, read-out: IC50 ± SE (nM), TsGAR-2) was > 10000 nM; at TsGAR-3, > 10 µM; on TsGAR-1 (antagonist vs 10 μM ACh, read-out: IC50 ± SE (nM), TsGAR-1), > 10000 nM. The “nH (Hill coefficient), antagonist, TsGAR-2” value at TsGAR-2 (antagonist) is listed as −3.002. In addition, the “antagonist effect on TsGAR-2 (in words)” value at TsGAR-2 is “partially blocked”. In addition, the “antagonist effect on A. suum GAR-1 (in words)” value in the assay with A. suum GAR-1 is recorded as “largely no effect”. Also, the “antagonist effect on C. elegans GAR-1 (in words)” value with C. elegans GAR-1 is reported as “largely no effect”. In addition, on TsGAR-3 (antagonist, without Gα15(16)), the “nH (Hill coefficient), antagonist, TsGAR-3” value is recorded as −0.6649. Further, the “antagonist effect on TsGAR-3 (in words)” value on TsGAR-3 (without Gα15(16)) is on record as “partially blocked”. Moreover, the “antagonist effect on C. elegans GAR-2 (in words)” value in the assay with C. elegans GAR-2 was “largely no effect”. Further, the “antagonist effect on TsGAR-1 (in words)” value on TsGAR-1 was “partially blocked”.

(Values after article PMC10731000, “Functional characterization of three G protein-coupled acetylcholine receptors in parasitic nematode Trichinella spiralis” (International Journal for Parasitology: Drugs and Drug …, 2023).)
